Measured values published in ChEMBL document CHEMBL2331376, “Ridaifen B, a tamoxifen derivative, directly binds to Grb10 interacting GYF protein 2” (Bioorg Med Chem, 2013).
Activity calls are given as the source filed them. The calls are words filed in the database; no cut-off is given here.

Legend:
[1] = target: T1, GRB10-interacting GYF protein 2 (Homo sapiens) (UniProt Q6Y7W6); test: (§1) Binding affinity to recombinant His-tagged Grb10 interacting GYF protein 2 (745-1030 amino acids) (unknown origin) by surface plasmon resonance analysis
T1 sequence (whole entry): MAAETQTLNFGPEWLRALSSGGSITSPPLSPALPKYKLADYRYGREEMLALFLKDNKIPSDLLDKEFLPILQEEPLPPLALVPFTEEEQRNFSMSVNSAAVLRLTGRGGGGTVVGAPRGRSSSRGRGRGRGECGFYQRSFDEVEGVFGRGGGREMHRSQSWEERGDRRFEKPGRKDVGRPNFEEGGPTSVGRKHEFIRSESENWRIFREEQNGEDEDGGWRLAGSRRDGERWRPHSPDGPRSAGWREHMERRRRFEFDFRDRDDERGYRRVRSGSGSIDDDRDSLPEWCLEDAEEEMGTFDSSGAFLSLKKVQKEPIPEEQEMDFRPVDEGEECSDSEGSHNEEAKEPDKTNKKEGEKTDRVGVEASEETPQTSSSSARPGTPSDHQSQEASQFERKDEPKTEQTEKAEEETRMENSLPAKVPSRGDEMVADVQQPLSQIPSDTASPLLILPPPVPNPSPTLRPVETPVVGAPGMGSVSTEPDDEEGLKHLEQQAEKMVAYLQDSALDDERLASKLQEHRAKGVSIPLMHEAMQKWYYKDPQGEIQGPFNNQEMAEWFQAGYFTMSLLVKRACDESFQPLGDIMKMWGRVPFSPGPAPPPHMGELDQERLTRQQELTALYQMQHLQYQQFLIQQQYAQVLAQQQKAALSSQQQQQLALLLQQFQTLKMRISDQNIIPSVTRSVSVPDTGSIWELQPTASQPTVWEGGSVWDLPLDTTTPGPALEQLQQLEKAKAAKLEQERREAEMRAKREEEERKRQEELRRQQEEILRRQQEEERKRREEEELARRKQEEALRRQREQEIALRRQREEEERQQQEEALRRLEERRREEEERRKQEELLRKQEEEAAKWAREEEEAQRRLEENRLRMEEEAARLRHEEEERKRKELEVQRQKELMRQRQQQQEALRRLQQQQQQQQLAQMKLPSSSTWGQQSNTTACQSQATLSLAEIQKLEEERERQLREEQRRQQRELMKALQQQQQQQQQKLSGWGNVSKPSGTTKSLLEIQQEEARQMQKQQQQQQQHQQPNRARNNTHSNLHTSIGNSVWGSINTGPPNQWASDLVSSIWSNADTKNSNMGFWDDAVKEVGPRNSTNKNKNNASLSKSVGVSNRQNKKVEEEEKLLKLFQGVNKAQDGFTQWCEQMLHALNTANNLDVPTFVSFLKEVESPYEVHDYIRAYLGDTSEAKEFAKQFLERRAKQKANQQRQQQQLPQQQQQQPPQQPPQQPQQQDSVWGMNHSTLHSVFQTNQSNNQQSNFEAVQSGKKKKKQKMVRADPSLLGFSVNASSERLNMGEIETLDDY

[2] = target: T2, GRB10-interacting GYF protein 2 (Homo sapiens, UniProt Q6Y7W6); test: as §1
T2 sequence (Q6Y7W6 whole entry): T1 sequence (whole entry)

[3] = target: T1, GRB10-interacting GYF protein 2 (Homo sapiens); test: Binding affinity to Flag-tagged Grb10 interacting GYF protein 2 (unknown origin) expressed in HEK293T cells by Western blotting method based pull-down assay; type: cell-based; details: HEK-293T
[4] = target: T1, GRB10-interacting GYF protein 2 (Homo sapiens); test: Binding affinity to Grb10 interacting GYF protein 2 in human Jurkat cells using 10 uM compound immobilized on streptavidin-coated wells by T7 phase display screening method; type: cell-based

Activity [1] | Kd [2] | Activity [3] | Activity [4] | Structure (SMILES)
Dose-dependent effect | 0.186 µM | Active | Active | CCC(=C(c1ccc(OCCN2CCCC2)cc1)c1ccc(OCCN2CCCC2)cc1)c1cccc(OC(=O)CCCCCNC(=O)CCCC[C@@H]2SC[C@@H]3NC(=O)N[C@@H]32)c1
inactive | – | inactive | inactive | CCC(=C(c1ccc(OCCN2CCOCC2)cc1)c1ccc(OCCN2CCOCC2)cc1)c1cccc(OC(=O)CCCCCNC(=O)CCCC[C@@H]2SC[C@@H]3NC(=O)N[C@@H]32)c1
